From ChEMBL document CHEMBL4138146, “A Schmidt rearrangement-mediated synthesis of novel tetrahydro-benzo[1,4]diazepin-5-ones as potential anticancer and antiprotozoal agents” (Eur J Med Chem, 2017)

Tests used:
Assay type in all cases: functional
HL-60(TB) = assay: Growth inhibition of human HL-60(TB) cells incubated for 48 hrs by sulforhodamine B assay; details: HL-60, 48 h
MOLT-4 = assay: Growth inhibition of human MOLT4 cells incubated for 48 hrs by sulforhodamine B assay; details: MOLT-4, 48 h
SR = assay: Growth inhibition of human SR cells incubated for 48 hrs by sulforhodamine B assay
EKVX = assay: Growth inhibition of human EKVX cells incubated for 48 hrs by sulforhodamine B assay
NCI-H226 = assay: Growth inhibition of human NCI-H226 cells incubated for 48 hrs by sulforhodamine B assay; details: NCI-H226, 48 h
NCI-H23 = assay: Growth inhibition of human NCI-H23 cells incubated for 48 hrs by sulforhodamine B assay; details: NCI-H23, 48 h
NCI-H322M = assay: Growth inhibition of human NCI-H322M cells incubated for 48 hrs by sulforhodamine B assay
NCI-H522 = assay: Growth inhibition of human NCI-H522 cells incubated for 48 hrs by sulforhodamine B assay; details: NCI-H522, 48 h
COLO 205 = assay: Growth inhibition of human COLO205 cells incubated for 48 hrs by sulforhodamine B assay; details: COLO 205, 48 h
HCT-116 = assay: Growth inhibition of human HCT116 cells incubated for 48 hrs by sulforhodamine B assay; details: HCT-116, 48 h
HCT-15 = assay: Growth inhibition of human HCT15 cells incubated for 48 hrs by sulforhodamine B assay; details: HCT-15, 48 h
HT-29 = assay: Growth inhibition of human HT-29 cells incubated for 48 hrs by sulforhodamine B assay; details: HT-29, 48 h
KM12 = assay: Growth inhibition of human KM12 cells incubated for 48 hrs by sulforhodamine B assay; details: KM12, 48 h
SW-620 = assay: Growth inhibition of human SW620 cells incubated for 48 hrs by sulforhodamine B assay; details: SW-620, 48 h
SF-268 = assay: Growth inhibition of human SF268 cells incubated for 48 hrs by sulforhodamine B assay; details: SF-268, 48 h
SF-295 = assay: Growth inhibition of human SF295 cells incubated for 48 hrs by sulforhodamine B assay; details: SF-295, 48 h
SNB-75 = assay: Growth inhibition of human SNB75 cells incubated for 48 hrs by sulforhodamine B assay; details: SNB-75, 48 h
LOX IMVI = assay: Growth inhibition of human LOXIMVI cells incubated for 48 hrs by sulforhodamine B assay
M14 = assay: Growth inhibition of human M14 cells incubated for 48 hrs by sulforhodamine B assay; details: M14, 48 h
MDA-MB-435 = assay: Growth inhibition of human MDA-MB-435 cells incubated for 48 hrs by sulforhodamine B assay; details: MDA-MB-435, 48 h
SK-MEL-5 = assay: Growth inhibition of human SK-MEL-5 cells incubated for 48 hrs by sulforhodamine B assay; details: SK-MEL-5, 48 h
IGROV-1 = assay: Growth inhibition of human IGROV1 cells incubated for 48 hrs by sulforhodamine B assay; details: IGROV-1, 48 h
OVCAR-3 = assay: Growth inhibition of human OVCAR3 cells incubated for 48 hrs by sulforhodamine B assay; details: OVCAR-3, 48 h
OVCAR-4 = assay: Growth inhibition of human OVCAR4 cells incubated for 48 hrs by sulforhodamine B assay; details: OVCAR-4, 48 h
OVCAR-5 = assay: Growth inhibition of human OVCAR5 cells incubated for 48 hrs by sulforhodamine B assay; details: OVCAR-5, 48 h
NCI/ADR-RES = assay: Growth inhibition of human NCI/ADR-RES cells incubated for 48 hrs by sulforhodamine B assay
SK-OV-3 = assay: Growth inhibition of human SKOV3 cells incubated for 48 hrs by sulforhodamine B assay; details: SK-OV-3, 48 h
786-0 = assay: Growth inhibition of human 786-0 cells incubated for 48 hrs by sulforhodamine B assay; details: 786-0, 48 h
SN12C = assay: Growth inhibition of human SN12C cells incubated for 48 hrs by sulforhodamine B assay
TK-10 = assay: Growth inhibition of human TK10 cells incubated for 48 hrs by sulforhodamine B assay; details: TK-10, 48 h
UO-31 = assay: Growth inhibition of human UO31 cells incubated for 48 hrs by sulforhodamine B assay; details: UO-31, 48 h
DU-145 = assay: Growth inhibition of human DU145 cells incubated for 48 hrs by sulforhodamine B assay; details: DU-145, 48 h
MCF7 = assay: Growth inhibition of human MCF7 cells incubated for 48 hrs by sulforhodamine B assay; details: MCF7, 48 h
MDA-MB-231 = assay: Growth inhibition of human MDA-MB-231 cells incubated for 48 hrs by sulforhodamine B assay; details: MDA-MB-231, 48 h
Hs-578T = assay: Growth inhibition of human Hs 578T cells incubated for 48 hrs by sulforhodamine B assay
BT-549 = assay: Growth inhibition of human BT549 cells incubated for 48 hrs by sulforhodamine B assay; details: BT-549, 48 h
MDA-MB-468 = assay: Growth inhibition of human MDA-MB-468 cells incubated for 48 hrs by sulforhodamine B assay; details: MDA-MB-468, 48 h
[1] = read-out: LC50 (the source's name)

**Q.** Which results are given for `CCCCOc1nc2ccccc2cc1C1CNC(=O)c2ccccc2N1` (stereo unspecified)?
**A.** GI50 (HL-60(TB)): 0.047 µM; LC50 (HL-60(TB)): 65.4 µM; TGI (HL-60(TB)): 0.384 µM; GI50 (MOLT-4): 3.05 µM; TGI (MOLT-4): 13.6 µM; CC50 (MOLT-4; [1]): > 100 µM; GI50 (SR): 1.26 µM; LC50 (SR): > 100 µM; TGI (SR): 10.7 µM; GI50 (EKVX): 4.76 µM; TGI (EKVX): 82.8 µM; CC50 (EKVX; [1]): > 100 µM; GI50 (NCI-H226): 3.13 µM; TGI (NCI-H226): 14.9 µM; CC50 (NCI-H226; [1]): > 100 µM; GI50 (NCI-H23): 5.16 µM; TGI (NCI-H23): 36.8 µM; CC50 (NCI-H23; [1]): > 100 µM; GI50 (NCI-H322M): 4.5 µM; TGI (NCI-H322M): 45.5 µM; CC50 (NCI-H322M; [1]): > 100 µM; GI50 (NCI-H522): 2.39 µM; TGI (NCI-H522): 25.8 µM; CC50 (NCI-H522; [1]): > 100 µM; GI50 (COLO 205): 2.19 µM; TGI (COLO 205): 4.95 µM; CC50 (COLO 205; [1]): 23 µM; GI50 (HCT-116): 1.84 µM; TGI (HCT-116): 6.26 µM; CC50 (HCT-116; [1]): 44.7 µM; GI50 (HCT-15): 1.92 µM; TGI (HCT-15): 10.8 µM; CC50 (HCT-15; [1]): 48.6 µM; GI50 (HT-29): 3.21 µM; TGI (HT-29): 11.1 µM; CC50 (HT-29; [1]): 67.7 µM; GI50 (KM12): 3.3 µM; TGI (KM12): 80.6 µM; CC50 (KM12; [1]): > 100 µM; GI50 (SW-620): 2.19 µM; TGI (SW-620): 27.1 µM; CC50 (SW-620; [1]): > 100 µM; GI50 (SF-268): 4.14 µM; TGI (SF-268): > 100 µM; CC50 (SF-268; [1]): > 100 µM; GI50 (SF-295): 1.4 µM; TGI (SF-295): 9.82 µM; CC50 (SF-295; [1]): 52.4 µM; GI50 (SNB-75): 1.81 µM; TGI (SNB-75): 13.7 µM; CC50 (SNB-75; [1]): 48.3 µM; GI50 (LOX IMVI): 2.9 µM; TGI (LOX IMVI): 14.4 µM; CC50 (LOX IMVI; [1]): 47.3 µM; GI50 (M14): 1.54 µM; TGI (M14): 11.8 µM; CC50 (M14; [1]): 92.2 µM; GI50 (MDA-MB-435): 0.34 µM; TGI (MDA-MB-435): 1.33 µM; CC50 (MDA-MB-435; [1]): 7.6 µM; GI50 (SK-MEL-5): 2.34 µM; TGI (SK-MEL-5): 20 µM; CC50 (SK-MEL-5; [1]): > 100 µM; GI50 (IGROV-1): 4.49 µM; TGI (IGROV-1): 23.9 µM; CC50 (IGROV-1; [1]): 98.5 µM; GI50 (OVCAR-3): 1.31 µM; TGI (OVCAR-3): 3.53 µM; CC50 (OVCAR-3; [1]): 9.4 µM; GI50 (OVCAR-4): 5.38 µM; TGI (OVCAR-4): 31.8 µM; CC50 (OVCAR-4; [1]): > 100 µM; GI50 (OVCAR-5): 6.42 µM; TGI (OVCAR-5): 41 µM; CC50 (OVCAR-5; [1]): > 100 µM; GI50 (NCI/ADR-RES): 1.74 µM; TGI (NCI/ADR-RES): 6.7 µM; CC50 (NCI/ADR-RES; [1]): 97 µM; GI50 (SK-OV-3): 2.38 µM; TGI (SK-OV-3): 9.96 µM; CC50 (SK-OV-3; [1]): > 100 µM; GI50 (786-0): 2.84 µM; TGI (786-0): 10.4 µM; CC50 (786-0; [1]): 4.65 µM; GI50 (SN12C): 3.34 µM; TGI (SN12C): 18.2 µM; CC50 (SN12C; [1]): 90.6 µM; GI50 (TK-10): 4.93 µM; TGI (TK-10): 21.6 µM; CC50 (TK-10; [1]): 73.8 µM; GI50 (UO-31): 2.41 µM; TGI (UO-31): 20.9 µM; CC50 (UO-31; [1]): 67.2 µM; GI50 (DU-145): 3.16 µM; TGI (DU-145): 12.9 µM; CC50 (DU-145; [1]): > 100 µM; GI50 (MCF7): 1.73 µM; TGI (MCF7): 16.1 µM; CC50 (MCF7; [1]): > 100 µM; GI50 (MDA-MB-231): 3.83 µM; TGI (MDA-MB-231): 20.9 µM; CC50 (MDA-MB-231; [1]): 90.3 µM; GI50 (Hs-578T): 3.21 µM; TGI (Hs-578T): 33.8 µM; CC50 (Hs-578T; [1]): > 100 µM; GI50 (BT-549): 5.22 µM; TGI (BT-549): 38.8 µM; CC50 (BT-549; [1]): > 100 µM; GI50 (MDA-MB-468): 1.61 µM; TGI (MDA-MB-468): 7.34 µM; CC50 (MDA-MB-468; [1]): > 100 µM
